Assay results: patent publication US5840684A, “Glycopeptide antibiotic derivatives” (Eli Lilly and Company, priority 1995, dated 1998)
Converted amounts (≈) assume the structure as drawn.

What was measured:
[1] = tested on: Staphylococcus aureus S13E; type: cell-based
Description: (§1) The MIC's were determined using a standard broth micro-dilution assay.

[2] = tested on: Staphylococcus aureus SA1199B; type: cell-based
Description: as §1

[3] = tested on: Entercoccus faecium 180-1; test: broth micro-dilution MIC; type: cell-based
Description: as §1

Entercoccus faecium 276 = test: broth micro-dilution MIC; type: cell-based
Description: as §1

[4] = tested on: Staphylococcus aureus 446; test: broth micro-dilution MIC; type: cell-based
Description: as §1

[5] = tested on: Staphylococcus aureus 447; test: broth micro-dilution MIC; type: cell-based
Description: as §1

[6] = tested on: Staphylococcus aureus 489; test: broth micro-dilution MIC; type: cell-based
Description: as §1

[7] = tested on: Staphylococcus aureus 491; test: broth micro-dilution MIC; type: cell-based
Description: as §1

[8] = tested on: Staphylococcus aureus SA1199A; test: broth micro-dilution MIC; type: cell-based
Description: as §1

[9] = tested on: Staphylococcus aureus SA1199; test: broth micro-dilution MIC; type: cell-based
Description: as §1

[10] = tested on: Staphylococcus aureus X400; test: broth micro-dilution MIC; type: cell-based
Description: as §1

[11] = tested on: Staphylococcus aureus X778; test: broth micro-dilution MIC; type: cell-based
Description: as §1

[12] = tested on: Streptococcus pyogenes C203; test: broth micro-dilution MIC; type: cell-based
Description: as §1

Entercoccus faecium 180 = test: broth micro-dilution MIC; type: cell-based; details: Entercoccus faecium 180
Description: (§2) The formula I compounds have in vitro and in vivo activity against Gram-positive pathogenic bacteria. The MIC's were determined using a standard broth micro-dilution assay.

Entercoccus faecium 2041 = test: broth micro-dilution MIC; type: cell-based; details: Entercoccus faecium 2041
Description: as §2

[13] = tested on: Enterococcus gallinarum 245; test: broth micro-dilution MIC; type: cell-based; details: Enterococcus gallinarum 245
Description: as §2

[14] = tested on: Staphylococcus epidermidis 270; test: broth micro-dilution MIC; type: cell-based
Description: as §2

[15] = tested on: Staphylococcus haemolyticus 105; test: broth micro-dilution MIC; type: cell-based
Description: as §2

[16] = tested on: Staphylococcus haemolyticus 415; test: broth micro-dilution MIC; type: cell-based
Description: as §2

[17] = tested on: Streptococcus pneumoniae P1; test: broth micro-dilution MIC; type: cell-based
Description: as §2

Streptococcus pyogenes = test: mouse protection, experimentally-induced infection; type: in vivo; details: mice infected with Streptococcus pyogenes, two doses
Streptococcus pneumoniae = test: mouse protection, experimentally-induced infection; type: in vivo; details: mice infected with Streptococcus pneumoniae, two doses
[18] = tested on: vancomycin-resistant enterococci; test: broth micro-dilution, mean geometric MIC; type: cell-based, Enterococcus faecium and Enterococcus faecalis; details: enterococci, 24-hour incubation
[19] = tested on: vancomycin-susceptible enterococci; test: broth micro-dilution, mean geometric MIC; type: cell-based, Enterococcus faecium and Enterococcus faecalis; details: enterococci, 24-hour incubation

| SMILES | MIC [1] [mg/L] | MIC [2] [mg/L] | MIC [3] [mg/L] | MIC (Entercoccus faecium 276) [mg/L] | MIC [4] [mg/L] | MIC [5] [mg/L] | MIC [6] [mg/L] | MIC [7] [mg/L] | MIC [8] [mg/L] | MIC [9] [mg/L] | MIC [10] [mg/L] | MIC [11] [mg/L] | MIC [12] [mg/L] | MIC (Entercoccus faecium 2041) [mg/L] | MIC [13] [mg/L] | MIC [14] [mg/L] | MIC [15] [mg/L] | MIC [16] [mg/L] | MIC [17] [mg/L] | ED50 (Streptococcus pyogenes) [mg/kg/2] | other results |
| --- | --- | --- | --- | --- | --- | --- | --- | --- | --- | --- | --- | --- | --- | --- | --- | --- | --- | --- | --- | --- | --- |
| CCc1ccc(-c2ccc(CNC3(C)CC(OC4C(Oc5c6cc7cc5Oc5ccc(cc5Cl)C(OC5CC(C)(N)C(O)C(C)O5)C5NC(=O)C(NC(=O)C7NC(=O)C(CC(N)=O)NC(=O)C(NC(=O)C(CC(C)C)NC)C(O)c7ccc(c(Cl)c7)O6)c6ccc(O)c(c6)-c6c(O)cc(O)cc6C(C(=O)O)NC5=O)OC(CO)C(O)C4O)OC(C)C3O)cc2)cc1 (centres unmarked) [Compound 90] | 1 (≈ 0.56 µM) | 1 (≈ 0.56 µM) | ≤ 0.06 | 2 (≈ 1.12 µM) | 2 (≈ 1.12 µM) | 1 (≈ 0.56 µM) | 2 (≈ 1.12 µM) | 2 (≈ 1.12 µM) | 0.5 (≈ 0.28 µM) | 2 (≈ 1.12 µM) | 1 (≈ 0.56 µM) | 1 (≈ 0.56 µM) | ≤ 0.06 | 0.125 (≈ 0.07 µM) | 2 (≈ 1.12 µM) | 1 (≈ 0.56 µM) | 2 (≈ 1.12 µM) | 2 (≈ 1.12 µM) | ≤ 0.06 | 0.058 | MIC (Entercoccus faecium 180): 0.25 mg/L (≈ 0.14 µM); ED50 (Streptococcus pneumoniae): 0.049 mg/kg/2; mean geometric MIC, Vancomycin Resistant Strains [18]: 0.71 mg/L; mean geometric MIC, Vancomycin Sensitive Strains [19]: 0.041 mg/L |
| CNC(CC(C)C)C(=O)NC1C(=O)NC(CC(N)=O)C(=O)NC2C(=O)NC3C(=O)NC(C(=O)NC(C(=O)O)c4cc(O)cc(O)c4-c4cc3ccc4O)C(OC3CC(C)(N)C(O)C(C)O3)c3ccc(c(Cl)c3)Oc3cc2cc(c3OC2OC(CO)C(O)C(O)C2OC2CC(C)(NCc3ccc(Oc4cccc(Cl)c4)c([N+](=O)[O-])c3)C(O)C(C)O2)Oc2ccc(cc2Cl)C1O (centres unmarked) [Compound 87] | 0.5 (≈ 0.27 µM) | 0.5 (≈ 0.27 µM) | ≤ 0.06 | ≤ 0.06 | 1 (≈ 0.539 µM) | 0.5 (≈ 0.27 µM) | 0.5 (≈ 0.27 µM) | 2 (≈ 1.08 µM) | ≤ 0.06 | 2 (≈ 1.08 µM) | 1 (≈ 0.539 µM) | 2 (≈ 1.08 µM) | ≤ 0.06 | ≤ 0.06 | 2 (≈ 1.08 µM) | 1 (≈ 0.539 µM) | 1 (≈ 0.539 µM) | 2 (≈ 1.08 µM) | ≤ 0.06 | 0.054 | MIC (Entercoccus faecium 180): ≤ 0.06 mg/L; ED50 (Streptococcus pneumoniae): 0.027 mg/kg/2; mean geometric MIC, Vancomycin Resistant Strains [18]: 0.71 mg/L; mean geometric MIC, Vancomycin Sensitive Strains [19]: 0.047 mg/L |
| CN[C@H](CC(C)C)C(=O)N[C@H]1C(=O)N[C@@H](CC(N)=O)C(=O)N[C@H]2C(=O)N[C@H]3C(=O)N[C@H](C(=O)N[C@H](C(=O)O)c4cc(O)cc(O)c4-c4cc3ccc4O)[C@H](O[C@H]3C[C@](C)(N)[C@@H](O)[C@H](C)O3)c3ccc(c(Cl)c3)Oc3cc2cc(c3O[C@@H]2O[C@H](CO)[C@@H](O)[C@H](O)[C@H]2O[C@H]2C[C@](C)(NCc3ccc(Oc4ccc(Cl)cc4)c([N+](=O)[O-])c3)[C@@H](O)[C@H](C)O2)Oc2ccc(cc2Cl)[C@H]1O [Compound 94] | 2 (≈ 1.08 µM) | 2 (≈ 1.08 µM) | ≤ 0.06 | 0.125 (≈ 0.0674 µM) | 1 (≈ 0.539 µM) | 0.5 (≈ 0.27 µM) | 2 (≈ 1.08 µM) | 0.5 (≈ 0.27 µM) | ≤ 0.06 | 0.5 (≈ 0.27 µM) | 1 (≈ 0.539 µM) | 0.5 (≈ 0.27 µM) | ≤ 0.06 | ≤ 0.06 | 2 (≈ 1.08 µM) | 1 (≈ 0.539 µM) | 2 (≈ 1.08 µM) | 2 (≈ 1.08 µM) | ≤ 0.06 | 0.16 | ED50 (Streptococcus pneumoniae): 0.049 mg/kg/2; mean geometric MIC, Vancomycin Resistant Strains [18]: 0.50 mg/L; mean geometric MIC, Vancomycin Sensitive Strains [19]: 0.041 mg/L |
| CCCc1ccc(-c2ccc(CNC3(C)CC(OC4C(Oc5c6cc7cc5Oc5ccc(cc5Cl)C(OC5CC(C)(N)C(O)C(C)O5)C5NC(=O)C(NC(=O)C7NC(=O)C(CC(N)=O)NC(=O)C(NC(=O)C(CC(C)C)NC)C(O)c7ccc(c(Cl)c7)O6)c6ccc(O)c(c6)-c6c(O)cc(O)cc6C(C(=O)O)NC5=O)OC(CO)C(O)C4O)OC(C)C3O)cc2)cc1 (centres unmarked) [Compound 107] | 2 (≈ 1.11 µM) | 2 (≈ 1.11 µM) | ≤ 0.06 | 1 (≈ 0.555 µM) | 2 (≈ 1.11 µM) | 1 (≈ 0.555 µM) | 1 (≈ 0.555 µM) | 1 (≈ 0.555 µM) | ≤ 0.06 | 1 (≈ 0.555 µM) | 1 (≈ 0.555 µM) | 0.5 (≈ 0.278 µM) | ≤ 0.06 | 0.5 (≈ 0.278 µM) | 2 (≈ 1.11 µM) | 0.5 (≈ 0.278 µM) | 2 (≈ 1.11 µM) | 2 (≈ 1.11 µM) | ≤ 0.06 | 0.27 | MIC (Entercoccus faecium 180): 0.125 mg/L (≈ 0.0694 µM); ED50 (Streptococcus pneumoniae): 0.092 mg/kg/2; mean geometric MIC, Vancomycin Resistant Strains [18]: 0.59 mg/L; mean geometric MIC, Vancomycin Sensitive Strains [19]: 0.082 mg/L |
| CNC(CC(C)C)C(=O)NC1C(=O)NC(CC(N)=O)C(=O)NC2C(=O)NC3C(=O)NC(C(=O)NC(C(=O)O)c4cc(O)cc(O)c4-c4cc3ccc4O)C(OC3CC(C)(N)C(O)C(C)O3)c3ccc(c(Cl)c3)Oc3cc2cc(c3OC2OC(CO)C(O)C(O)C2OC2CC(C)(NCc3cccc(Oc4cccc(C(F)(F)F)c4)c3)C(O)C(C)O2)Oc2ccc(cc2Cl)C1O (centres unmarked) [Compound 111] | 1 (≈ 0.543 µM) | 1 (≈ 0.543 µM) | ≤ 0.06 | 0.5 (≈ 0.271 µM) | 2 (≈ 1.09 µM) | 1 (≈ 0.543 µM) | 1 (≈ 0.543 µM) | 2 (≈ 1.09 µM) | 0.5 (≈ 0.271 µM) | 2 (≈ 1.09 µM) | 1 (≈ 0.543 µM) | 2 (≈ 1.09 µM) | ≤ 0.06 | ≤ 0.06 | 4 (≈ 2.17 µM) | 1 (≈ 0.543 µM) | 1 (≈ 0.543 µM) | 4 (≈ 2.17 µM) | ≤ 0.06 | 0.099 | MIC (Entercoccus faecium 180): ≤ 0.06 mg/L; ED50 (Streptococcus pneumoniae): 0.084 mg/kg/2; mean geometric MIC, Vancomycin Resistant Strains [18]: 0.71 mg/L; mean geometric MIC, Vancomycin Sensitive Strains [19]: 0.031 mg/L |
